For the assay, the system named is houseflies. Nature of the assay: Knockdown test on houseflies, oil solution sprayed in a 70 cm cubic chamber. The format is in vivo. The following applies: 0.00625% (w/v) oil solution, 0.7 ml sprayed in cubic chamber of 70 cm side length, ten houseflies (5 of each male and female), repeated twice. How it is done:
Each of the present invention compounds (1) and (2) (0.00625 parts) produced in the aforementioned Production
Examples was dissolved in 10 parts of dichloromethane and the resulting solution was mixed with 89.99375 parts of an isoparafin solvent (Isper M, registered trademark of Exxon Chemical Company) to prepare a 0.00625% (w/v) oil solution.
Ten houseflies (5 of each male and female) were released in a cubic chamber having a side length of 70 cm and then 0.7 ml of the present invention compound (1) was sprayed through a small window at an inlet of the chamber using a spray gun (spray pressure: 0.9 kg/cm^2). The number of knockdowned houseflies was counted after a given time had passed since completion of spraying, and a knockdown rate (KD rate) was determined (repeated twice). The test was carried out in the same manner, except that the present invention compound (2) was used in place of the present invention compound (1), and then a knockdown rate was determined after a given time (repeated twice).

SMILES strings stand for the structures.

On to `C=C/C(C#N)=C/[C@@H]1[C@@H](C(=O)OCc2c(F)c(F)c(COC)c(F)c2F)C1(C)C` [Present invention Compound (1), 4-methoxymethyl-2,3,5,6-tetrafluorobenzyl=(1R)-trans-3-[(1Z)-2-cyano-1,3-butadienyl]-2,2-dimethylcyclopropane carboxylate], for which the “Knockdown rate (%) after 7 minutes” value was 100%.
Regarding `C/C=C/C(C#N)=C/[C@@H]1[C@@H](C(=O)OCc2c(F)c(F)c(COC)c(F)c2F)C1(C)C` [Present invention compound (2), 4-methoxymethyl-2,3,5,6-tetrafluorobenzyl=(1R)-trans-3-[(1Z,3E)-2-cyano-1,3-pentadienyl]-2,2-dimethylcyclopropane carboxylate], the “Knockdown rate (%) after 7 minutes” value worked out at 100%.
